Experimental data: patent publication US20060210554A1, “Detection of cholesterol ozonation products” (priority 2003, published 2006)

Tests used:
apoB-100 of human LDL = apoB-100 of human LDL (Homo sapiens, UniProt P04114); assay: Circular dichroism of LDL secondary structure; settings: LDL 100 μg/ml, compound 10 μM, PBS pH 7.4, 37° C., up to 48 h; for random coil of LDL protein after incubation: normal LDL 27±2%; for a helical structure of LDL protein after incubation: normal LDL ~40±2%
Procedure: Circular dichroism. […] Spectra were recorded in the peptidic range (200-260 nm). To increase the signal-to-noise ratio, multiple spectra (three) were averaged for each measurement.

[1] = Aldolization of ketoaldehyde 4a with amino acids (1H NMR); type: physicochemical; settings: L-Lys(OEt).2HCl, 1 equivalent, 100 h, DMSO-d6/D2O
Procedure: Aldolization of ketoaldehyde 4a with amino acids. […] To this solution was added 1 equivalent of either: a) L-proline, b) glycine, c) L-lysine hydrochloride or d) L-lysine ethyl ester dihydrochloride. At time points the samples were analyzed by ^1H NMR.

Sequence of apoB-100 of human LDL (P04114 28-4563): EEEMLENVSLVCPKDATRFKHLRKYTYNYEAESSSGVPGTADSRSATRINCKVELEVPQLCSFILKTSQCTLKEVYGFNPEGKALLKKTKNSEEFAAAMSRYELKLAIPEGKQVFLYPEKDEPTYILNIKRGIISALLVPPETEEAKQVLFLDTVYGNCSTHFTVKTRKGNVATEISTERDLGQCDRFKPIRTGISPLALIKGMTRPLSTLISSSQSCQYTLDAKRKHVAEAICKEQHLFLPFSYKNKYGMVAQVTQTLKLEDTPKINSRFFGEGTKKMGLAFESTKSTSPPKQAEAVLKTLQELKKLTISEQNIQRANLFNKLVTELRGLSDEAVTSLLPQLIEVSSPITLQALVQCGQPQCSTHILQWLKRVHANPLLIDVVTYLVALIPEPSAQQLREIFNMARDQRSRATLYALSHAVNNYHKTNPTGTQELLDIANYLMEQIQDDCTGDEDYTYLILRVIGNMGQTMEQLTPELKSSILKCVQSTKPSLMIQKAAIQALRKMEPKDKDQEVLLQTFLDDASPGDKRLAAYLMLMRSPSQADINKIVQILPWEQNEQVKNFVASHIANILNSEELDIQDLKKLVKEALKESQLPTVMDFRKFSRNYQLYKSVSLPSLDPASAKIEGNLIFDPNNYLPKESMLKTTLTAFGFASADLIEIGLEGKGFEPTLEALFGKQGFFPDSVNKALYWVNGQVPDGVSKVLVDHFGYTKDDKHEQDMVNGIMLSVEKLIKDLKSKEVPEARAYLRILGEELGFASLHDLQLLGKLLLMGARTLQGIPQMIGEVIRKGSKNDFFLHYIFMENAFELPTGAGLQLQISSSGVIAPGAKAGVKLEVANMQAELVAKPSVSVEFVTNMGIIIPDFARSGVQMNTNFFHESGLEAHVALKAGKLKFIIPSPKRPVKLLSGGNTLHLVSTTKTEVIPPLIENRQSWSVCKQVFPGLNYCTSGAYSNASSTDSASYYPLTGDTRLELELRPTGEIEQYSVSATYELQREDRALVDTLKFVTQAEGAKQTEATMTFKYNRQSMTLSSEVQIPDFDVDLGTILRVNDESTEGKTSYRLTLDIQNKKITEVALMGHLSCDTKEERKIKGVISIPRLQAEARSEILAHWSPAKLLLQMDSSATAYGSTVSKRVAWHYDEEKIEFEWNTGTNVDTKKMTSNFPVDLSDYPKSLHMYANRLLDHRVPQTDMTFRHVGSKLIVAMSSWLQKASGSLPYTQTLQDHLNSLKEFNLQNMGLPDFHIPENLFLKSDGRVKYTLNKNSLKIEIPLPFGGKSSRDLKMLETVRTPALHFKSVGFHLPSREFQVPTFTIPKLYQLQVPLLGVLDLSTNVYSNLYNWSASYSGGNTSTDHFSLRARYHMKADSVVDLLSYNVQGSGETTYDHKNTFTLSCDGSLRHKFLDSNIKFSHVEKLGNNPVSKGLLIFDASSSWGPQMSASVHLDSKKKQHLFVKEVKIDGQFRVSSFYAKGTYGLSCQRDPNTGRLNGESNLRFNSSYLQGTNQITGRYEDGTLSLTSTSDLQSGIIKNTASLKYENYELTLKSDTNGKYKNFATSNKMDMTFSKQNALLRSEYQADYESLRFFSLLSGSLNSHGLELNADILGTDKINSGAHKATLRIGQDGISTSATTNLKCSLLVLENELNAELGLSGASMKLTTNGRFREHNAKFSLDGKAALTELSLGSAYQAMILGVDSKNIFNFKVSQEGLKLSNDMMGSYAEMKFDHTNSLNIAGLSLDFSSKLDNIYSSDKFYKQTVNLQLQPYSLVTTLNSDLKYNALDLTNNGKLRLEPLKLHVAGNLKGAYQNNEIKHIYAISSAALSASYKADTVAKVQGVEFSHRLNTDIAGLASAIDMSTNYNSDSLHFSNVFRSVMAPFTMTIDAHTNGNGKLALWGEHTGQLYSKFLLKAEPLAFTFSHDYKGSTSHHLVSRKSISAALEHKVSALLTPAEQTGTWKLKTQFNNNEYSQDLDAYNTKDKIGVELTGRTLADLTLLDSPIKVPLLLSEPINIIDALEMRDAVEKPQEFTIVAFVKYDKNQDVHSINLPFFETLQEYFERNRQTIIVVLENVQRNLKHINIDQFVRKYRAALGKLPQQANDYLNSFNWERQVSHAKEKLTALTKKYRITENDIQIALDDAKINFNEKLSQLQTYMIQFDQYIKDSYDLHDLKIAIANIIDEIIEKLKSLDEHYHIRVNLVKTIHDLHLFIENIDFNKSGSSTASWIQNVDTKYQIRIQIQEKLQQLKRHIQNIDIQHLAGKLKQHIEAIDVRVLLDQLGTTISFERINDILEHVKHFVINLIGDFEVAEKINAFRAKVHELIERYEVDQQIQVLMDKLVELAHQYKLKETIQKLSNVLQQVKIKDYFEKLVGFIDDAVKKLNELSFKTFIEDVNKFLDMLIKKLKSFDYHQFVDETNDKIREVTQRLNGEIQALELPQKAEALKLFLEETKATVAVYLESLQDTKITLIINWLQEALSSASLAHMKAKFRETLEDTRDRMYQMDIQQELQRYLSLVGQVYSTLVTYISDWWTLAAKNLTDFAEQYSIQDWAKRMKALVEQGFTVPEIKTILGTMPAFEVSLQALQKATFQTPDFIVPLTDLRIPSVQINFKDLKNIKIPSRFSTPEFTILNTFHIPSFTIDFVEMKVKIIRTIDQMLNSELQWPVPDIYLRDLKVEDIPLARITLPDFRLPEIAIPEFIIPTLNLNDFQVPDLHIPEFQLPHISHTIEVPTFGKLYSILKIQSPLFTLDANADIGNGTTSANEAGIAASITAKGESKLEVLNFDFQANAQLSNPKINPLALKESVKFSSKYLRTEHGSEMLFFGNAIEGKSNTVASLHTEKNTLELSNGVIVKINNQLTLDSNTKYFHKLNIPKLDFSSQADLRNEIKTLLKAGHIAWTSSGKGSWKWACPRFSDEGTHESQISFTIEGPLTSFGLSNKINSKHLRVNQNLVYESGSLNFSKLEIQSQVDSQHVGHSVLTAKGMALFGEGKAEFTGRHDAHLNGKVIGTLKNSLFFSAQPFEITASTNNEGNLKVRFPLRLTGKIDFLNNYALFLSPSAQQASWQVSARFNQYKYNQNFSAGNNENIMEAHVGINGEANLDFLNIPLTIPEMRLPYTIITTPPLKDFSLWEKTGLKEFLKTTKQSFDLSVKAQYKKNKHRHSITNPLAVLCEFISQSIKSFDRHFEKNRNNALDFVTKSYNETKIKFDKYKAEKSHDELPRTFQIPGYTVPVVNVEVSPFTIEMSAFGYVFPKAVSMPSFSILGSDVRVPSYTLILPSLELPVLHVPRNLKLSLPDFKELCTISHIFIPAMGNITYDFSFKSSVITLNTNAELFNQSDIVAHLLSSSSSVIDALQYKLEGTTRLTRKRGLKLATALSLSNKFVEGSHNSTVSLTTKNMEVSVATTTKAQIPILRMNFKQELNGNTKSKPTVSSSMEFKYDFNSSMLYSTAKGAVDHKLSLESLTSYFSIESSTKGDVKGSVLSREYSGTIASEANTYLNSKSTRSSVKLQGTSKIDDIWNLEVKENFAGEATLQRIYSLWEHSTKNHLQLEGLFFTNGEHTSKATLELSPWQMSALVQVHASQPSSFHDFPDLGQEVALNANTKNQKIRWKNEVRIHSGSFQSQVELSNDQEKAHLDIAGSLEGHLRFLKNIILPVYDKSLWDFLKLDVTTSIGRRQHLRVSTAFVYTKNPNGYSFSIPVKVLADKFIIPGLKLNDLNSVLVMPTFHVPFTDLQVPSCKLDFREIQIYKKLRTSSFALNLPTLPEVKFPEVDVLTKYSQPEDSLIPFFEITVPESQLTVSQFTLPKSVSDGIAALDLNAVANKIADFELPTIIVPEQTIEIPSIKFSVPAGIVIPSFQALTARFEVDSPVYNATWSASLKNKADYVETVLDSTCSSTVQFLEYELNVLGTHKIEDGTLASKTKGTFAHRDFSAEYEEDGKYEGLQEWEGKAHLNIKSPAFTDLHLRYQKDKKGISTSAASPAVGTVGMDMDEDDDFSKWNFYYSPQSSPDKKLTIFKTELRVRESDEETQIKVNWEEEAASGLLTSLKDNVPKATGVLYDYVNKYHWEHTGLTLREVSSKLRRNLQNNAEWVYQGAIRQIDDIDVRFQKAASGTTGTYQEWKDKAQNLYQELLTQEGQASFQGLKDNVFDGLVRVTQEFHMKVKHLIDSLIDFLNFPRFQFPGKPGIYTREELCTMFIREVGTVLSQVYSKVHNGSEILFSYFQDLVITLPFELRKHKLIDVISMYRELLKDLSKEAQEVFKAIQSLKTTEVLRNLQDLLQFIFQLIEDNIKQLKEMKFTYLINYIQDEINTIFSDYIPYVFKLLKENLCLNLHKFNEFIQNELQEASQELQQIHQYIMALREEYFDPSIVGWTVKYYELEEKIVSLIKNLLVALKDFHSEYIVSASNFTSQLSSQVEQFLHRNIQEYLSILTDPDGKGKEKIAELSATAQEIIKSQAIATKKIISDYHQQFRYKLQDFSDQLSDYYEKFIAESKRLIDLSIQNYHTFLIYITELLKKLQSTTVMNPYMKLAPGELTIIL

| Structure (SMILES) | random coil of LDL protein after incubation (apoB-100 of human LDL) | a helical structure of LDL protein after incubation (apoB-100 of human LDL) | conversion of 4a into 5a [1] |
| --- | --- | --- | --- |
| CC(C)CCC[C@@H](C)[C@H]1CCC2C(CC=O)C([C@@]3(C)CC[C@H](O)CC3=O)CC[C@@]21C (some centres unmarked) [4a, 3βHydroxy-5-oxo-5,6-secocholestan-6-al] | ~39±2% | ~23±5% | 62 % conversion |
| CC(C)CCC[C@@H](C)[C@H]1CCC2C3C(CC[C@@]21C)[C@@]1(C)CC[C@H](O)C[C@@]1(O)[C@@H]3C=O (stereo partly drawn) [5a, 3β-Hydroxy-5β-hydroxy-B-norcholestane-6β-carboxaldehyde] | 32±4% | ~20±2% |  |
